Source: the Kinase Knowledgebase extract (Sharma et al. 2016)

molecular target: EGFR (human) (UniProt P00533); conditions: kb
Sequence (P00533 whole entry, looked up): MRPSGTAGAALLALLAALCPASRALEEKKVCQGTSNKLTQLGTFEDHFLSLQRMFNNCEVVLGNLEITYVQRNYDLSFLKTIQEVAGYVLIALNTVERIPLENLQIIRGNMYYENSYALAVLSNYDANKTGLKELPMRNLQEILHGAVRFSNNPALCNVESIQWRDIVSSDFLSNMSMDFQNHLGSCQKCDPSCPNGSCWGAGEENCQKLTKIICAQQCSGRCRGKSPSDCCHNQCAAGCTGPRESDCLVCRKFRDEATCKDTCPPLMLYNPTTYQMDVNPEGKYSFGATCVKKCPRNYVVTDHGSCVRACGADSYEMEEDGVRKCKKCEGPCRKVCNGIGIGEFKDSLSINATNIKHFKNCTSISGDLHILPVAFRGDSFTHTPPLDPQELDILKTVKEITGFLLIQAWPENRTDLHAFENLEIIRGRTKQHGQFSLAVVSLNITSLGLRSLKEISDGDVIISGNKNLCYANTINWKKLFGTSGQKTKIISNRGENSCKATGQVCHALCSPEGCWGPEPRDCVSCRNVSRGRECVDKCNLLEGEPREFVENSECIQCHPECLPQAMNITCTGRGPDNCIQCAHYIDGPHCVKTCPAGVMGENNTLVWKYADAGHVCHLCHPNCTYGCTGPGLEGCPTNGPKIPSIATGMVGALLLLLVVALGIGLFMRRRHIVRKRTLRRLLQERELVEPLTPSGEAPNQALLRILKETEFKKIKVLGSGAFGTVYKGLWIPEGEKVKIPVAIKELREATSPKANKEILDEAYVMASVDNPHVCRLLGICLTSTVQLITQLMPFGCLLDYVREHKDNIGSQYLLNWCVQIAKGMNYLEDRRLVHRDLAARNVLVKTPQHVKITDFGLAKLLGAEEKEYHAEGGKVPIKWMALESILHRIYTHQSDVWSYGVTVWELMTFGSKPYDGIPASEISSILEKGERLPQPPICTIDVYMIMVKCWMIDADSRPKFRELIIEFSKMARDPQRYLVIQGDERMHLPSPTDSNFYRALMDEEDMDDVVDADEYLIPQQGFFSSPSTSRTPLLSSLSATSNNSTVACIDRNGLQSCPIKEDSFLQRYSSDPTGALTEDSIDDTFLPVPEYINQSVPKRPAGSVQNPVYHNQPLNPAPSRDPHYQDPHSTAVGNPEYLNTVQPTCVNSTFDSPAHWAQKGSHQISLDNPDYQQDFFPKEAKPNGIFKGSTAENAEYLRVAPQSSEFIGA

Row | Compound | IC50
1 | COC(=O)N1CCC(Nc2ncc3ncnc(Nc4ccc(F)c(Cl)c4)c3n2)CC1 | 100 to 1000 nM
2 | CCN(CC)CC(C)Nc1ncc2ncnc(Nc3ccc(F)c(Cl)c3)c2n1 (stereo not drawn) | 100 to 1000 nM
3 | Fc1ccc(Nc2ncnc3cnc(N4CCC(C5CCNCC5)CC4)nc23)cc1Cl | 100 to 1000 nM
4 | NCC1CCC(CNc2ncc3ncnc(Nc4ccc(F)c(Cl)c4)c3n2)CC1 (stereo not drawn) | 100 to 1000 nM
5 | Nc1c(Cl)cc(Nc2ncnc3cnc(N[C@H]4CC[C@H](C(=O)N5CCOCC5)CC4)nc23)cc1Cl | 100 to 1000 nM
6 | NCC1CCN(c2ncc3ncnc(Nc4ccc(F)c(Cl)c4)c3n2)CC1 | 100 to 1000 nM
7 | CC(CN1CCCCC1)Nc1ncc2ncnc(Nc3ccc(F)c(Cl)c3)c2n1 (stereo not drawn) | 100 to 1000 nM
8 | Nc1c(Cl)cc(Nc2ncnc3cnc(N[C@H]4CC[C@H](C(=O)N5CCCC5)CC4)nc23)cc1Cl | 100 to 1000 nM
9 | Nc1c(Cl)cc(Nc2ncnc3cnc(N[C@H]4CC[C@H](C(=O)O)CC4)nc23)cc1Cl | 100 to 1000 nM
10 | Fc1ccc(Nc2ncnc3cnc(NC4CN5CCC4CC5)nc23)cc1Cl (stereo not drawn) | 100 to 1000 nM

molecular target: EGFR (murine) (UniProt P00533); conditions: f/l herc cells
Sequence (P00533 whole entry, looked up): as above

Row | Compound | IC50
11 | COC(=O)N1CCC(Nc2ncc3ncnc(Nc4ccc(F)c(Cl)c4)c3n2)CC1 | > 10 nM
12 | O[C@H]1CC[C@H](Nc2ncc3ncnc(Nc4ccc(-c5ccccc5)cc4)c3n2)CC1 | > 10 nM
13 | CCN(CC)CC(C)Nc1ncc2ncnc(Nc3ccc(F)c(Cl)c3)c2n1 (stereo not drawn) | > 1 nM
14 | O[C@H]1CC[C@H](Nc2ncc3ncnc(Nc4cccc(Oc5ccccc5)c4)c3n2)CC1 | > 10 nM
15 | CC1CC(c2ccc(O)cc2)CN1c1ncc2ncnc(Nc3ccc(F)c(Cl)c3)c2n1 (stereo not drawn) | > 1 nM
16 | Fc1ccc(Nc2ncnc3cnc(N4CCC(C5CCNCC5)CC4)nc23)cc1Cl | > 1 nM
17 | Fc1ccc(Nc2ncnc3cnc(NC4CCCNCC4)nc23)cc1Cl (stereo not drawn) | > 1 nM
18 | COC(=O)NC1CCN(c2ncc3ncnc(Nc4ccc(F)c(Cl)c4)c3n2)CC1 | > 10 nM
19 | Fc1ccc(Nc2ncnc3cnc(NCC4CCNCC4)nc23)cc1Cl | > 20 nM
20 | NCCCCCNc1ncc2ncnc(Nc3ccc(F)c(Cl)c3)c2n1 | > 1 nM
21 | Fc1ccc(Nc2ncnc3cnc(N4CCC(N5CCCC5)CC4)nc23)cc1Cl | 10 nM
22 | NCCCNc1ncc2ncnc(Nc3ccc(F)c(Cl)c3)c2n1 | > 10 nM
23 | Nc1ccc(CNc2ncc3ncnc(Nc4ccc(F)c(Cl)c4)c3n2)cc1 | > 10 nM
24 | CC(N)CNc1ncc2ncnc(Nc3ccc(F)c(Cl)c3)c2n1 (stereo not drawn) | > 10 nM
25 | NCC1CCC(CNc2ncc3ncnc(Nc4ccc(F)c(Cl)c4)c3n2)CC1 (stereo not drawn) | > 1 nM
26 | CN1CCN(C2CCC(Nc3ncc4ncnc(Nc5ccc(F)c(Cl)c5)c4n3)CC2)CC1 (stereo not drawn) | > 1 nM
27 | CN1CCC(CNc2ncc3ncnc(Nc4ccc(F)c(Cl)c4)c3n2)CC1 | > 1 nM
28 | Fc1ccc(Nc2ncnc3cnc(NC4CCCN(Cc5ccccc5)CC4)nc23)cc1Cl (stereo not drawn) | > 1 nM
29 | OCc1cccc(Nc2ncnc3cnc(N[C@H]4CC[C@H](O)CC4)nc23)c1 | > 1 nM
30 | Nc1ncc2ncnc(Nc3ccc(F)c(Cl)c3)c2n1 | > 1 nM

Row | Compound | IC50
31 | COC(=O)[C@H]1CC[C@H](Nc2ncc3ncnc(Nc4cc(Cl)c(N)c(Cl)c4)c3n2)CC1 | > 10 nM
32 | COc1cccc(N2CCN(c3ncc4ncnc(Nc5ccc(F)c(Cl)c5)c4n3)CC2)c1 | > 20 nM
33 | CC(C)(C)OC(=O)N1CCC(Nc2ncc3ncnc(Nc4ccc(F)c(Cl)c4)c3n2)CC1 | > 10 nM
34 | COC(=O)[C@H]1CC[C@H](Nc2ncc3ncnc(Nc4ccc(F)c(Cl)c4)c3n2)CC1 | > 10 nM
35 | Nc1c(Cl)cc(Nc2ncnc3cnc(N[C@H]4CC[C@H](C(=O)N5CCOCC5)CC4)nc23)cc1Cl | > 1 nM
36 | COc1ccccc1N1CCN(c2ncc3ncnc(Nc4ccc(F)c(Cl)c4)c3n2)CC1 | > 20 nM
37 | COC(CNc1ncc2ncnc(Nc3ccc(F)c(Cl)c3)c2n1)OC | > 20 nM
38 | O=C(N[C@H]1CC[C@H](CNc2ncc3ncnc(Nc4ccc(F)c(Cl)c4)c3n2)CC1)OCc1ccccc1 | > 10 nM
39 | NC1CCCN(c2ncc3ncnc(Nc4ccc(F)c(Cl)c4)c3n2)CC1 (stereo not drawn) | > 1 nM
40 | CN1CCC(N(C)c2ncc3ncnc(Nc4ccc(F)c(Cl)c4)c3n2)CC1 | 10 nM
41 | NCC1CCN(c2ncc3ncnc(Nc4ccc(F)c(Cl)c4)c3n2)CC1 | > 1 nM
42 | Fc1ccc(Nc2ncnc3cnc(N4CCCCCC4)nc23)cc1Cl | > 1 nM
43 | CN1CCCN(c2ncc3ncnc(Nc4ccc(F)c(Cl)c4)c3n2)CC1 | > 10 nM
44 | CC(C)(N)CNc1ncc2ncnc(Nc3ccc(F)c(Cl)c3)c2n1 | > 10 nM
45 | OC1CCN(c2ncc3ncnc(Nc4ccc(F)c(Cl)c4)c3n2)CC1 | > 1 nM
46 | CC(C)(C)OC(=O)N1CCCC(Nc2ncc3ncnc(Nc4ccc(F)c(Cl)c4)c3n2)CC1 (stereo not drawn) | > 10 nM
47 | Nc1c(Br)cc(Nc2ncnc3cnc(N4CCC(N)CC4)nc23)cc1Br | > 1 nM
48 | Fc1ccc(Nc2ncnc3cnc(N4CCCCC4)nc23)cc1Cl | > 1 nM
49 | CN1CCC(C2CCN(c3ncc4ncnc(Nc5ccc(F)c(Cl)c5)c4n3)CC2)CC1 | > 1 nM
50 | NCC1CCCC(CNc2ncc3ncnc(Nc4ccc(F)c(Cl)c4)c3n2)C1 (stereo not drawn) | > 1 nM

Row | Compound | IC50
51 | CC(C)(C)OC(=O)N1CCC(CNc2ncc3ncnc(Nc4ccc(F)c(Cl)c4)c3n2)CC1 | > 20 nM
52 | O=CNC1CCN(c2ncc3ncnc(Nc4ccc(F)c(Cl)c4)c3n2)CC1 | > 10 nM
53 | CC(C)(C)OC(=O)N1CCN(CCNc2ncc3ncnc(Nc4ccc(F)c(Cl)c4)c3n2)CC1 | > 1 nM
54 | Fc1ccc(Nc2ncnc3cnc(N4CCCNCC4)nc23)cc1Cl | > 10 nM
55 | Fc1ccc(Nc2ncnc3cnc(NCC45CCN(CC4)CC5)nc23)cc1Cl | > 1 nM
56 | NC[C@H]1CC[C@H](Nc2ncc3ncnc(Nc4ccc(F)c(Cl)c4)c3n2)CC1 | > 1 nM
57 | Fc1ccc(Nc2ncnc3cnc(N4CCC(N5CCOCC5)CC4)nc23)cc1Cl | > 20 nM
58 | CC(CN1CCCCC1)Nc1ncc2ncnc(Nc3ccc(F)c(Cl)c3)c2n1 (stereo not drawn) | > 1 nM
59 | CCN(CCO)c1ncc2ncnc(Nc3ccc(F)c(Cl)c3)c2n1 | > 1 nM
60 | NCCCCNc1ncc2ncnc(Nc3ccc(F)c(Cl)c3)c2n1 | > 10 nM
61 | Nc1c(Cl)cc(Nc2ncnc3cnc(N[C@H]4CC[C@H](C(=O)N5CCCC5)CC4)nc23)cc1Cl | > 1 nM
62 | Nc1c(Cl)cc(Nc2ncnc3cnc(N[C@H]4CC[C@H](C(=O)O)CC4)nc23)cc1Cl | > 1 nM
63 | Nc1cc(Cl)c(Nc2ncnc3cnc(N[C@H]4CC[C@H](O)CC4)nc23)cc1Cl | > 10 nM
64 | NCCNc1ncc2ncnc(Nc3ccc(F)c(Cl)c3)c2n1 | > 10 nM
65 | NCC1CCCN(c2ncc3ncnc(Nc4ccc(F)c(Cl)c4)c3n2)C1 (stereo not drawn) | > 1 nM
66 | Fc1ccc(Nc2ncnc3cnc(NC4CN5CCC4CC5)nc23)cc1Cl (stereo not drawn) | > 10 nM
67 | O=C(N1CCOCC1)N1CCN(CCNc2ncc3ncnc(Nc4ccc(F)c(Cl)c4)c3n2)CC1 | > 1 nM
68 | N#CN1CCC(Nc2ncc3ncnc(Nc4ccc(F)c(Cl)c4)c3n2)CC1 | > 1 nM
